Literature values, collected in patent publication US20030073826A1 (priority 2001, published 2003).

Test system: bacteria
Settings: U.S. Pat. No. 3,496,163, Example 2

CCC[C@@H]1C[C@@H](C(=O)NC(C(C)Cl)C2OC(SC)C(O)C(O)C2O)N(C)C1 (stereo partly shown) [clindamycin free base]
antibacterial spectrum compared with the hydrochloride salt of clindamycin: same scope and magnitude
